Assay results taken from patent US12509460B2 (Skyhawk Therapeutics, Inc., priority 2019, dated 2025).
Like-named read-outs stand apart in the source and are kept apart here.

What was measured:
[1] = Quantitative splicing assay (HTT), qPCR; type: cell-based, human; settings: Homo sapiens, GM04724, 24 h, GM04724 lymphoblasts, read-out: HTT Splicing: E49-50 EC50
Protocol: Example A9: Quantitative Splicing Assay (HTT)
GM04724 (CAG 70/20) Huntington's disease patient lymphoblasts (Coriell) are plated in 96-well v-bottom plates at 50,000 cells/well. Immediately after plating, cells are dosed with compound for 24 h at concentrations ranging from 2.5 uM to 0.15 nM (0.1% DMSO). Treated cells are lysed and cDNA synthesized using the Fast Advanced Cells-to-Ct kit (Thermofisher A35378) according to the manufacturer's instructions. 2 uL of each cDNA are used in qPCR reactions to confirm the compound-induced inclusion of a cryptic exon within intron 49 of the Huntingtin (HTT) transcripts. The qPCR reactions are prepared in 384-well plates in 10 uL volume, using TagMan™ Fast Advanced Master Mix [ThermoFisher, 4444965] with primers and probes shown in the table below. Reactions are run in a Quant studio 6 qPCR instrument with default settings.

[2] = system: mHTT protein in GM04724 (CAG 70/20) Huntington's disease patient lymphoblast cells; assay: mHTT protein assay, 2B7-MW1 assay via Mesoscale Discovery (MSD); type: cell-based, human
Method in brief: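 Signal from the 2B7-MW1 antibody pair on MSD, rising with polyQ length and smaller HTT fragments, measured mHTT after 48 h compound exposure (0.6 nM–10 μM) in GM04724 cells. A parallel replicate plate gave CellTiter Glo viability.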

[3] = system: SMN FL and SMN Δ7 in spinal muscular atrophy (SMA) patient fibroblasts (GM03813, Coriell); assay: Quantitative splicing assay (SMN), qPCR; type: cell-based, human; settings: Homo sapiens, Fibroblast, 24 h, 24 h, read-out: SMN2 Splicing FL EC50
Protocol: Spinal muscular atrophy (SMA) patient fibroblasts (GM03813, Coriell) are plated in 96-well plates at 50,000 cells/well. […] Treated cells are lysed and cDNA synthesized using the Fast Advanced Cells-to-Ct kit (Thermofisher A35378) according to the manufacturer's instructions. 2 μL of each cDNA are used in qPCR reactions. […] Reactions are run in a Quant Studio 6 qPCR instrument with default settings.

[4] = system: SMN protein in spinal muscular atrophy (SMA) patient fibroblasts (GM03813, Coriell); assay: SMN protein assay, Mesoscale Discovery (MSD); type: cell-based, human; settings: for EC50: read-out: SMN2 protein EC50
Method in brief: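 Absolute SMN levels were quantified by MSD against an SMN protein standard curve (1 μg/ml to 19.5 pg/ml) run on each plate. Samples were lysates of GM03813 patient fibroblasts (7000 cells/well) treated 48 hours with compound doses from 2.5 μM down to 0.6 nM.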

MDR1 (P-gp) = assay: Blood-brain-barrier (BBB) penetration potential via MDCK-MDR1 permeability assay; settings: dog; for Papp A→B at 120 min, 5 μM: MDCK-MDR1, pH 7.4, MDCK-MDR1: Papp A-B; for Papp B→A at 120 min, 5 μM: MDCK-MDR1, pH 7.4, MDCK-MDR1: Papp B-A
Protocol: (§1) Example A13: Assessment of Blood-Brain-Barrier (BBB) Penetration Potential Via an MDCK-MDR1 Permeability Assay
(§2) The permeability of compounds is assessed for BBB penetration potential by use of an MDCK-MDR1 assay (Catalog EA203) performed by Absorption Systems, Exton PA.
(§3) Experimental Procedure: MDR1-MDCK cell monolayers are grown to confluence on collagen-coated, microporous membranes in 12-well assay plates. The permeability assay buffer is Hanks' balanced salt solution containing 10 mM HEPES and 15 mM glucose at a pH of 7.4. The buffer in the receiver chamber also contained 1% bovine serum albumin. The dosing solution concentration is 5 μM of test article in the assay buffer. Cell monolayers are dosed on the apical side (A-to-B) or basolateral side (B-to-A) and incubated at 37° C. with 5% CO2 in a humidified incubator. Samples are taken from the donor and receiver chambers at 120 minutes. Each determination is performed in duplicate. The flux of lucifer yellow is also measured post-experimentally for each monolayer to ensure no damage is inflicted to the cell monolayers during the flux period. All samples are assayed by LC-MS/MS using electrospray ionization.
(§4) The apparent permeability (Papp) and percent recovery are calculated as follows:
(§5) Analytical Method: Liquid Chromatography. Column: Waters ACQUITY UPLC BEH Phenyl 30 ×2.1 mm, 1.7 μm; M.P. Buffer. 25 mM ammonium formate buffer, pH 3.5; Aqueous Reservoir (A): 90% water, 10% buffer, Organic Reservoir (B): 90% acetonitrile, 10% buffer, Flow Rate: 0.7 mL/minute; Gradient Program:
(§6) • Total Run Time: 1.00 minute • Autosampler. 2 μL injection volume • Wash1: water/methanol/2-propanol:1/1/1; with 0.2% formic acid • Wash2: 0.1% formic acid in water • Brain Penetration • Potential Classification: A-B Papp≥3.0 and Efflux Ratio <3.0: High • A-B Papp≥3.0 and 10≥Efflux Ratio >3.0: Moderate • A-B Papp≥3.0 and Efflux Ratio≥10: Low • A-B Papp<3.0: Low

[5] = system: MDR1-MDCK cell monolayers; assay: as above
Protocol: as §1, §2, §3, §4, §5, §6

MDR1 = assay: as above; settings: dog, MDCK-MDR1, pH 7.4, MDCK-MDR1: Efflux
Protocol: as §1, §2, §3, §4, §5, §6

[6] = GM04724 (CAG 70/20) Huntington's disease patient lymphoblasts
[7] = SMA patient fibroblasts (GM03813)
[8] = SMA patient fibroblasts (GM03813), 48 hours
[9] = GM04724 Huntington's disease patient lymphoblasts
[10] = SMA patient fibroblasts GM03813, 24 h, qPCR
[11] = SMA patient fibroblasts GM03813, 48 hours, MSD

Row | Compound | EC50 [1] | EC50 [2, 6] | EC50 [3, 7] | EC50 [4, 8] | Papp A→B at 120 min, 5 μM (MDR1 (P-gp); A-B) | Papp B→A at 120 min, 5 μM (MDR1 (P-gp); B-A) | MDCK-MDR1: % Recov A-B ([5]; A-B) | MDCK-MDR1: % Recov B-A ([5]; B-A) | efflux ratio at 120 min, 5 μM (MDR1) | EC50 ([1]; qPCR) | EC50 [2, 9] | EC50 [3, 10] | EC50 [4, 11] | Papp A→B at 120 min, 5 μM (MDR1 (P-gp); A-B direction) | Papp B→A at 120 min, 5 μM (MDR1 (P-gp); B-A direction) | MDCK-MDR1: % Recov A-B ([5]; A-B direction) | MDCK-MDR1: % Recov B-A ([5]; B-A direction) | efflux ratio at 120 min, 5 μM (MDR1; efflux ratio) | SMN2 protein EC50 [4, 8]
1 | Cc1nc2cc(O)c(-c3ccc(N(C)[C@H]4C[C@@H]5CC[C@@H](N5)[C@H]4F)nn3)cc2s1 [Compound 116B, 6-(6-(((1R,2R,3S,5S)-2-fluoro-8-azabicyclo[3.2.1]octan-3-yl)(methyl)amino)pyridazin-3-yl)-2-methylbenzo[d]thiazol-5-ol] | 0.01 to 15 nM | 0.01 to 15 nM | 0.01 to 15 nM | 0.01 to 15 nM | 6.29 ×10⁻⁶ cm/s | 43.2 ×10⁻⁶ cm/s | 77% | 80% | 7 |  |  |  |  |  |  |  |  |  | 
2 | CN(c1ccc(-c2ccc(C#N)cc2O)nn1)[C@@H]1C[C@H]2CCC[C@H](N2)[C@@H]1F [Compound 39A, 4-(6-(((1S,2S,3R,5R)-2-fluoro-9-azabicyclo[3.3.1]nonan-3-yl)(methyl)amino)pyridazin-3-yl)-3-hydroxybenzonitrile] |  |  |  |  |  |  |  |  |  | 16 to 50 nM | 16 to 50 nM | 16 to 50 nM | 0.01 to 15 nM | 8.1 ×10⁻⁶ cm/s | 40.5 ×10⁻⁶ cm/s | 83% | 76% | 5 | 
3 | CN(c1ccc(-c2cc3c(=O)n(C)ccc3s2)nn1)[C@H]1C[C@@H]2CC[C@@H](N2)[C@H]1F (single isomer, unassigned) [Compound 68B] |  |  |  |  |  |  |  |  |  | 51 to 100 nM | 101 to 500 nM | 51 to 100 nM | 16 to 50 nM | 0.4 ×10⁻⁶ cm/s | 44.7 ×10⁻⁶ cm/s | 92% | 91% | 113 | 
4 | CN(c1ccc(-c2cc3cccnc3cc2O)nn1)[C@H]1C[C@@H]2CCC[C@@H](N2)[C@H]1F [Compound 41B, 6-(6-(((1R,2R,3S,5S)-2-fluoro-9-azabicyclo[3.3.1]nonan-3-yl)(methyl)amino)pyridazin-3-yl)quinolin-7-ol] |  |  |  |  |  |  |  |  |  | 16 to 50 nM | 0.01 to 15 nM | 16 to 50 nM | 0.01 to 15 nM | 2.57 ×10⁻⁶ cm/s | 36.7 ×10⁻⁶ cm/s | 60% | 95% | 14 | 
5 | Cc1nc2cc(-c3ccc(N(C)[C@@H]4C[C@H]5CC[C@H](N5)[C@@H]4F)nn3)c(O)cc2c(=O)n1C [Compound 114A, 7-(6-(((1S,2S,3R,5R)-2-fluoro-8-azabicyclo[3.2.1]octan-3-yl)(methyl)amino)pyridazin-3-yl)-6-hydroxy-2,3-dimethylquinazolin-4(3H)-one] | 0.01 to 15 nM | 0.01 to 15 nM | 16 to 50 nM | 0.01 to 15 nM | 0.28 ×10⁻⁶ cm/s | 37.8 ×10⁻⁶ cm/s | 102% | 102% | 133 |  |  |  |  |  |  |  |  |  | 
6 | CN(c1ccc(-c2ccc(C3=CCCC3)cc2O)nn1)[C@H]1C[C@@H]2CC[C@@H](N2)[C@H]1F [Compound 34B, 5-(cyclopent-1-en-1-yl)-2-(6-(((1R,2R,3S,5S)-2-fluoro-8-azabicyclo[3.2.1]octan-3-yl)(methyl)amino)pyridazin-3-yl)phenol] |  |  |  |  |  |  |  |  |  | 51 to 100 nM | 51 to 100 nM | 16 to 50 nM | 16 to 50 nM | 1.02 ×10⁻⁶ cm/s | 2.81 ×10⁻⁶ cm/s | 12% | 48% | 3 | 
7 | Cc1cnc(-c2ccc(-c3ccc(N(C)[C@H]4C[C@@H]5CCC[C@@H](N5)[C@H]4F)nn3)c(O)c2)o1 [Compound 16B, 2-(6-(((1R,2R,3S,5S)-2-fluoro-9-azabicyclo[3.3.1]nonan-3-yl)(methyl)amino)pyridazin-3-yl)-5-(5-methyloxazol-2-yl)phenol] |  |  |  |  |  |  |  |  |  | 0.01 to 15 nM | 16 to 50 nM | 16 to 50 nM | 0.01 to 15 nM | 1.16 ×10⁻⁶ cm/s | 18.7 ×10⁻⁶ cm/s | 24% | 26% | 16 | 
8 | CN(c1ccc(-c2cc3c(=O)n(C)ccc3cc2O)nn1)[C@H]1C[C@@H]2CC[C@@H](N2)[C@H]1F [Compound 83B, 7-(6-(((1R,2R,3S,5S)-2-fluoro-8-azabicyclo[3.2.1]octan-3-yl)(methyl)amino)pyridazin-3-yl)-6-hydroxy-2-methylisoquinolin-1(2H)-one] |  |  |  |  |  |  |  |  |  | 0.01 to 15 nM | 0.01 to 15 nM | 0.01 to 15 nM | 0.01 to 15 nM | 1.43 ×10⁻⁶ cm/s | 44.4 ×10⁻⁶ cm/s | 77% | 72% | 31 | 
9 | CN(c1ccc(-c2cc(F)c(-c3ccn(C)c(=O)c3)cc2O)nn1)[C@@H]1C[C@H]2CC[C@H](N2)[C@@H]1F [Compound 1A, 4-(2-fluoro-4-(6-(((1S,2S,3R,5R)-2-fluoro-8-azabicyclo[3.2.1]octan-3-yl)(methyl)amino)pyridazin-3-yl)-5-hydroxyphenyl)-1-methylpyridin-2(1H)-one] |  |  |  |  |  |  |  |  |  | 0.01 to 15 nM | 0.01 to 15 nM | 0.01 to 15 nM | 0.01 to 15 nM | 0.61 ×10⁻⁶ cm/s | 49.3 ×10⁻⁶ cm/s | 83% | 88% | 81 | 
10 | CN(c1ccc(-c2cc3c(=O)n(C)cnc3cc2O)nn1)[C@@H]1C[C@H]2CC[C@H](N2)[C@@H]1F [Compound 85A, 6-(6-(((1S,2S,3R,5R)-2-fluoro-8-azabicyclo[3.2.1]octan-3-yl)(methyl)amino)pyridazin-3-yl)-7-hydroxy-3-methylquinazolin-4(3H)-one] |  |  |  |  |  |  |  |  |  | 16 to 50 nM | 0.01 to 15 nM | 16 to 50 nM | 0.01 to 15 nM | 0.67 ×10⁻⁶ cm/s | 49.2 ×10⁻⁶ cm/s | 99% | 99% | 74 | 
11 | CN(c1ccc(-c2ccc(-c3cnccn3)cc2O)nn1)[C@@H]1C[C@H]2CCC[C@H](N2)[C@@H]1F [Compound 24A, 2-(6-(((1S,2S,3R,5R)-2-fluoro-9-azabicyclo[3.3.1]nonan-3-yl)(methyl)amino)pyridazin-3-yl)-5-(pyrazin-2-yl)phenol] |  |  |  |  |  |  |  |  |  | 51 to 100 nM | 51 to 100 nM | 101 to 500 nM | 0.01 to 15 nM | 4.73 ×10⁻⁶ cm/s | 61.3 ×10⁻⁶ cm/s | 79% | 90% | 13 | 
12 | Cc1nc2cc(-c3ccc(N(C)[C@H]4C[C@@H]5CC[C@H]([C@H]4F)N5C)nn3)c(O)cc2c(=O)n1C [Compound 105B, 7-(6-(((1R,2R,3S,5S)-2-fluoro-8-methyl-8-azabicyclo[3.2.1]octan-3-yl)(methyl)amino)pyridazin-3-yl)-6-hydroxy-2,3-dimethylquinazolin-4(3H)-one] | 51 to 100 nM | 16 to 50 nM | 101 to 500 nM |  | 1.28 ×10⁻⁶ cm/s | 64.3 ×10⁻⁶ cm/s | 114% | 119% | 50 |  |  |  |  |  |  |  |  |  | E (501 ≤ E ≤ 10.000)
